Earlier results in US20040126415A1, “Dermal delivery of a water-soluble selective cyclooxygenase-2 inhibitor” (priority 2002, published 2004).

Experiments:
COX-1 = COX-1 (Homo sapiens, UniProt P23219)
COX-2 = biological target: T1, COX-2 (Homo sapiens, UniProt P35354)
T1 sequence (P35354 18-604): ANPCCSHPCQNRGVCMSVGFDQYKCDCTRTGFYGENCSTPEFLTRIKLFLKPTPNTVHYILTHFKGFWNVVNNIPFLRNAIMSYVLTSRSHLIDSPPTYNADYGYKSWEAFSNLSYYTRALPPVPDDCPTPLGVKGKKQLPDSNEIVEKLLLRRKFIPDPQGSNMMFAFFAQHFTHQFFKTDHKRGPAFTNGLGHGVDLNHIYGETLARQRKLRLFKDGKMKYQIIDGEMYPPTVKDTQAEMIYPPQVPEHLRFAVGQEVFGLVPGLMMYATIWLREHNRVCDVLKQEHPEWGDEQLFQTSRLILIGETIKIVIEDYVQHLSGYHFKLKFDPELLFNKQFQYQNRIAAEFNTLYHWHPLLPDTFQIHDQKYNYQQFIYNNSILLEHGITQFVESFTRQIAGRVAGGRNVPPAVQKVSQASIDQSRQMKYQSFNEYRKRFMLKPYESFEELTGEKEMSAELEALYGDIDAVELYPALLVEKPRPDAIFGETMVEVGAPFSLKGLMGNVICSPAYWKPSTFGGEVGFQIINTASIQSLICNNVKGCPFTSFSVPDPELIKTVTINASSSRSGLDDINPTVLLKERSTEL

COX-1, sequence (P23219 24-599): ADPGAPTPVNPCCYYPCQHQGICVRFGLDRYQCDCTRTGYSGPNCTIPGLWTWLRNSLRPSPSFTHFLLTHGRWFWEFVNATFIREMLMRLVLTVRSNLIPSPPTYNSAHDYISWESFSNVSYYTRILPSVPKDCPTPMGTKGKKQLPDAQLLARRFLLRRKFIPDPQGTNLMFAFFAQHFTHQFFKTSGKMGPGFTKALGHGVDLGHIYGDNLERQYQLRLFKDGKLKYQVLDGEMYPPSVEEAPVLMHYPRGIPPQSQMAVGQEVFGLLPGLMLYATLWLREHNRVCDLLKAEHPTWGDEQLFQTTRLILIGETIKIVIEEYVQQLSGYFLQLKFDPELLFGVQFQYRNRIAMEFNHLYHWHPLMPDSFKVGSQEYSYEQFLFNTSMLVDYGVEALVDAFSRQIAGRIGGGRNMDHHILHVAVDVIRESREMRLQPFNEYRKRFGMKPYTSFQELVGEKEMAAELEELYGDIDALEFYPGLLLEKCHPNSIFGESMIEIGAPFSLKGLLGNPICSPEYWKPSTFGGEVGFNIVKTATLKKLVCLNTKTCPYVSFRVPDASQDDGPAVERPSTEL

in vitro inhibitory activity against COX-2 (COX-2) | SMILES | in vitro inhibitory activity against COX-1 (COX-1)
weak in vitro inhibitory activity | CCC(=O)NS(=O)(=O)c1ccc(-c2c(-c3ccccc3)noc2C)cc1 [Parecoxib, N-[[4-(5-methyl-3-phenylisoxazol-4-yl)phenyl]sulfonyl]propanamide] | weak in vitro inhibitory activity
– | Cc1onc(-c2ccccc2)c1-c1ccc(S(N)(=O)=O)cc1 [valdecoxib, 4-[5-methyl-3-phenylisoxazol-4-yl]benzenesulfonamide] | weak inhibitor
